Reference: patent US20190374563A1, “TREATMENT OF KLEBSIELLA PNEUMONIAE INFECTIONS WITH ANTIBACTERIAL AMINOGLYCOSIDE COMPOUNDS” (Achaogen, Inc., priority 2009, published 2019)
≈ marks a conversion by molar mass, not a printed value.

Legend:
[1] = system: S. aureus ATCC 33591 (MRSA); test: murine neutropenic thigh model; format: in vivo; details: two highest dosages; MRSA ATCC 33591, challenge 1.2×10^3 CFU; FIG. 5
Description: (§1) The in vivo activity of Example 1 in the mouse neutropenic thigh model (Andes and Craig. Antimicrob Agents Chemother. 2002, 46:1665-1670) was determined against seven bacterial strains including susceptible Escherichia coli and Klebsiella pneumoniae; multi-drug resistant (MDR) clinical isolates of E. coli and K. pneumoniae that display resistance to multiple antibiotics (including AGs); MRSA; and two K. pneumoniae carbapenemases (KPC)-expressing strains (see Table 5). For this efficacy model, groups of six CD-1 mice were rendered neutropenic by two intraperitoneal injections of cyclophosphamide. The first injection was 150 mg/kg three days prior to infection (day −4), and the second injection was 100 mg/kg one day prior to infection (day −1). On study day 0, animals were inoculated intramuscularly (0.1 ml) with a known number of colony forming units (CFU) of the specified bacterial strain (ATCC 25922, AECO 1003, ATCC 43816, AKPN 1073, AKPN 1109, ATCC 33591 or ASMA 1030), tailored to the virulence of each strain in the model to maximize bacterial load while avoiding mortality in the untreated control arms. Antibiotics were administered via subcutaneous injection at 2 and 14 hours after bacterial challenge. At 26 hours, infected thigh tissue was harvested, homogenized, and plated to count CFU. […]

[2] = system: K. pneumoniae AKPN 1073 (MDR, AG-resistant clinical isolate); test: murine neutropenic thigh model; format: in vivo; details: two highest dosages; AKPN 1073, challenge 1.3×10^4 CFU; FIG. 3
Description: as §1

E. coli ATCC 25922 = test: murine septicemia model of infection; format: in vivo; details: mice, single SC or IV dose 1 hour after IP challenge, mortality for 7 days; ED50 values are mg/kg
Description: (§2) Two models were run on each compound, using E. coli and P. aeruginosa QC bacterial strains. Both studies employed the same design. […] At 1 hour after bacterial challenge, the mice received a single SC or IV dose of vehicle or test substance to assess in vivo anti-infective activity. Mortality was recorded once daily for 7 days after bacterial inoculation.

P. aeruginosa ATCC 27853 = test: murine septicemia model of infection; format: in vivo; details: mice, single SC or IV dose 1 hour after IP challenge, mortality for 7 days; ED50 values are mg/kg
Description: as §2

[3] = system: K. pneumoniae ATCC 43816 (susceptible); test: murine neutropenic thigh model; format: in vivo
Description: (§3) The in vivo activity of Example 1 in the mouse neutropenic thigh model (Andes and Craig. Antimicrob Agents Chemother. 2002, 46:1665-1670) was determined against seven bacterial strains including susceptible Escherichia coli and Klebsiella pneumoniae; multi-drug resistant (MDR) clinical isolates of E. coli and K. pneumoniae that display resistance to multiple antibiotics (including AGs); MRSA; and two K. pneumoniae carbapenemases (KPC)-expressing strains (see Table 5). For this efficacy model, groups of six CD-1 mice were rendered neutropenic by two intraperitoneal injections of cyclophosphamide. The first injection was 150 mg/kg three days prior to infection (day −4), and the second injection was 100 mg/kg one day prior to infection (day −1). On study day 0, animals were inoculated intramuscularly (0.1 ml) with a known number of colony forming units (CFU) of the specified bacterial strain (ATCC 25922, AECO 1003, ATCC 43816, AKPN 1073, AKPN 1109, ATCC 33591 or ASMA 1030), tailored to the virulence of each strain in the model to maximize bacterial load while avoiding mortality in the untreated control arms. Antibiotics were administered via subcutaneous injection at 2 and 14 hours after bacterial challenge. At 26 hours, infected thigh tissue was harvested, homogenized, and plated to count CFU. Untreated control animals were harvested at 2 hours post-infection to assess the initial bacterial load and at 26 hours post-infection to measure growth in the absence of antibiotic treatment.

[4] = system: K. pneumoniae AKPN 1109 (KPC-expressing clinical isolate); test: murine neutropenic thigh model; format: in vivo; details: highest test dosage; AKPN 1109, challenge 8.3×10^5 CFU; FIG. 4
Description: as §3

[5] = system: E. coli ATCC 25922 (susceptible); test: murine neutropenic thigh model; format: in vivo
Description: as §3

[6] = system: P. aeruginosa ATCC 27853 (APAE001); test: MIC assay, CLSI broth microdilution; format: cell-based; details: Pseudomonas aeruginosa; Table 1; APAE001 is ATCC27853; read-out: MIC APAE001
Summary of the method: (§4)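 Test compounds were diluted two-fold at 2× strength in Mueller Hinton Broth, then combined 1:1 with saline-suspended bacteria from an overnight agar colony to reach 5×10^5 CFU/mL. Incubation followed at 35° C. for 20 hours in ambient air, per CLSI reference methods.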

[7] = system: K. pneumoniae producing KPC (n = 25); test: MIC by microdilution, clinical isolates; format: cell-based; details: Klebsiella pneumoniae, K. pneumoniae producing KPC (n = 25)
Description: (§5) The in vitro activity of representative antibacterial aminoglycoside compounds against a collection of 102 K. pneumoniae clinical isolates collected from January 2006 to October 2007 at the University of Pittsburgh Medical Center, and three Cleveland institutions including University Hospitals Case Medical Center, the Cleveland Clinic, and the Louis Stokes Department of Veterans Affairs Medical Center was analyzed. The 102 K. pneumoniae isolates were selected based on a multidrug-resistant (MDR) phenotype (i.e., resistance to >3 antibiotic classes). Twenty-five isolates were KPC carbapenemase producing (KPC-Kp), and were part of a previous study where the β-lactamase background and clonality were characterized (see Endimiani, A., A. M. Hujer, F. Perez, C. R. Bethel, K. M. Hujer, J. Kroeger, M. Oethinger, D. L. Paterson, M. D. Adams, M. R. Jacobs, D. J. Diekema, G. S. Hall, S. G. Jenkins, L. B. Rice, F. C. Tenover, and R. A. Bonomo. 2009. Characterization of blaKPC-containing Klebsiella pneumoniae isolates detected in different institutions in the Eastern USA. J Antimicrob Chemother 63:427-37).
(§6) Minimum inhibitory concentrations (MICs) were performed by microdilution method using cation-adjusted Mueller-Hinton broth, according to the Clinical and Laboratory Standards Institute (CLSI) criteria (see CLSI. 2006. Methods for dilution antimicrobial susceptibility tests for bacteria that grow aerobically; approved standard-Seventh edition. Clinical and Laboratory Standard Institute, Wayne, Pa. CLSI document M7-A7). These MIC assays were conducted following the same protocol as set forth in Example 110. […] The following ATCC control strains were used: Escherichia coli ATCC 25922, Pseudomonas aeruginosa ATCC 27853, and K. pneumoniae ATCC 700603.

[8] = system: multidrug-resistant (MDR) K. pneumoniae isolates (n = 102); test: MIC by microdilution, clinical isolates; format: cell-based
Description: as §5, §6

seven bacterial strains = test: murine neutropenic thigh model, statements over all strains; format: in vivo
Description: as §3

[9] = system: E. coli AECO 1003 (MDR, AG-resistant clinical isolate); test: murine neutropenic thigh model; format: in vivo; details: highest dosage; AECO 1003, challenge 1.5×10^3 CFU; FIG. 2
Description: as §1

[10] = system: E. coli ATCC 25922 (AECO001); test: MIC assay, CLSI broth microdilution; format: cell-based; design: MIC AECO001: unit not given here; details: Table 3; E. coli ATCC25922
Summary of the method: as §4

[11] = system: E. coli AECO040, AAC(6′)-I; test: MIC assay, aminoglycoside resistant strain; format: cell-based; design: unit not given beside the values; details: Table 3; E. coli AAC(6′)-I
Description: (§7) Minimum inhibitory concentrations (MIC) were determined by reference Clinical and Laboratory Standards Institute (CLSI) broth microdilution methods per M7-A7 [2006]. Quality control ranges utilizing E. coli ATCC 25922, P. aeruginosa ATCC 27853 and S. aureus ATCC 29213, and interpretive criteria for comparator agents were as published in CLSI M100-S17 [2007]. Briefly, serial two-fold dilutions of the test compounds were prepared at 2× concentration in Mueller Hinton Broth. The compound dilutions were mixed in 96-well assay plates in a 1:1 ratio with bacterial inoculum. The inoculum was prepared by suspension of a colony from an agar plate that was prepared the previous day. Bacteria were suspended in sterile saline and added to each assay plate to obtain a final concentration of 5×10^5 CFU/mL. The plates were incubated at 35° C. for 20 hours in ambient air.
(§8) These MIC assays were conducted following the same protocol as set forth in Example 110. As shown, substituted sisomicin derivatives with groups other than methyl at the 6′-position have improved activity against strains expressing the AAC6′-modifying enzymes.

[12] = system: A. calcoaceticus AACA005, AAC(6′)-I; test: MIC assay, aminoglycoside resistant strain; format: cell-based; design: unit not given beside the values; details: Table 3; A. calcoaceticus AAC(6′)-I
Description: as §7, §8

SMILES | MIC AECO001 [10] | MIC AECO040 [11] | MIC AACA005 [12] | further results
CN[C@@H]1[C@@H](O)[C@@H](O[C@@H]2[C@@H](O)[C@H](O[C@H]3OC(CNCCO)=CC[C@H]3N)[C@@H](N)C[C@H]2NC(=O)[C@@H](O)CCN)OC[C@]1(C)O [Example 1, 6′-(2-Hydroxy-ethyl)-1-(4-amino-2(S)-hydroxy-butyryl)-sisomicin] |  |  |  | bacterial load after 24 hours of treatment versus initial bacterial load [1]: reduced to below the initial bacterial load; bacterial load after 24 hours of treatment versus initial bacterial load [2]: reduced to below the level of the initial bacterial load; ED50/MIC E. Coli (E. coli ATCC 25922): <2; ED50/MIC P. aeruginosa (P. aeruginosa ATCC 27853): 4; ED50/MIC [3]: 7.4; bacterial load after 24 hours of treatment versus initial bacterial load [4]: reduced back to the level of the initial bacterial load; ED50/MIC [5]: 8.4; MIC [6]: 1 to 16 µg/mL (≈ 1.69 to 27 µM); MIC50 ([7]; read-out: MIC50): 0.5 µg/mL (≈ 0.844 µM); MIC90 ([7]; read-out: MIC90): 1 µg/mL (≈ 1.69 µM); MIC50 ([8]; Klebsiella pneumoniae, Total MDR K. pneumoniae isolates (n = 102), read-out: MIC50): 0.5 µg/mL (≈ 0.844 µM); MIC90 ([8]; Klebsiella pneumoniae, Total MDR K. pneumoniae isolates (n = 102), read-out: MIC90): 1 µg/mL (≈ 1.69 µM); MIC ([8]; Klebsiella pneumoniae, all MDR and KPC-Kp strains, read-out: MICs for all strains): ≤ 4 µg/mL; MIC90 lower than that of amikacin ([8]; MDR and KPC-Kp strains): at least 5 twofold dilutions; bacterial titers versus initial bacterial load (static level) (seven bacterial strains; all 7 strains): reducing bacterial titers back to or below the initial bacterial load; ED50 against gentamicin resistant strains (seven bacterial strains; gentamicin resistant strains): efficacious; ratio of in vivo efficacy to in vitro activity (ED50/MIC) (seven bacterial strains; in words): comparable to that of gentamicin; in vivo efficacy (ED50) against strains susceptible to gentamicin (seven bacterial strains; strains susceptible to gentamicin, in words): comparable to gentamicin; bacterial titer after 24 hours of treatment versus initial bacterial load [9]: reduced to below the initial bacterial load
CNCC1=CC[C@@H](N)[C@@H](O[C@H]2C(O)[C@@H](O[C@H]3OC[C@](C)(O)[C@H](NC)[C@H]3O)[C@H](N)C[C@@H]2N)O1 (stereo partly shown) [Mono-substituted Compound 1] | 1 | >64 | 2 | 
CN[C@@H]1[C@@H](O)[C@@H](O[C@@H]2C(O)[C@H](O[C@H]3OC(CNCC4CC4)=CC[C@H]3N)[C@@H](N)C[C@H]2N)OC[C@]1(C)O (stereo partly shown) [Mono-substituted Compound 2] | 1 | 1 | 4 | 
CN[C@@H]1[C@@H](O)[C@@H](O[C@@H]2C(O)[C@H](O[C@H]3OC(CNCC4CCNCC4)=CC[C@H]3N)[C@@H](N)C[C@H]2N)OC[C@]1(C)O (stereo partly shown) [Mono-substituted Compound 3] | 0.5 | 0.25 | 0.5 | 
CN[C@@H]1[C@@H](O)[C@@H](O[C@@H]2C(O)[C@H](O[C@H]3OC(CNCCCN)=CC[C@H]3N)[C@@H](N)C[C@H]2N)OC[C@]1(C)O (stereo partly shown) [Mono-substituted Compound 4] | 2 | 16 | 1 | 
CN[C@@H]1C(O)[C@@H](O[C@@H]2[C@@H](O)[C@H](OC3OC(CN)=CC[C@H]3N)[C@@H](N)C[C@H]2NC(=O)[C@@H](O)CN)OC[C@]1(C)O (stereo partly shown) [Mono-substituted Compound 5] | 0.5 | 8 | 32 | 
CN[C@@H]1C(O)[C@@H](O[C@@H]2[C@@H](O)[C@H](OC3OC(CN)=CC[C@H]3N)[C@@H](N)C[C@H]2NC(=O)[C@@H](O)CCN)OC[C@]1(C)O (stereo partly shown) [Mono-substituted Compound 6] | 0.5 | 4 | 16 | 
CN[C@@H]1C(O)[C@@H](O[C@@H]2[C@@H](O)[C@H](OC3OC(CN)=CC[C@H]3N)[C@@H](N)C[C@H]2NC(=O)C2(O)CNC2)OC[C@]1(C)O (stereo partly shown) [Mono-substituted Compound 7] | 1 | 4 | 32 | 
CN[C@@H]1[C@@H](O)[C@@H](O[C@@H]2[C@@H](O)[C@H](O[C@H]3OC(CN)=CC[C@H]3N)[C@@H](N)C[C@H]2N)OC[C@]1(C)O [Sisomicin] | 0.5 | 32 | 32 | 
